Reference: patent publication US6960574B2, “Antagonists of RF-amide neuropeptides” (University of Florida, priority 2002, dated 2005)
Peptide text beside a SMILES is read from it. * marks the point of attachment. Dansyl = CN(C)c1cccc2c(S(=O)(=O)*)cccc12

Tested on: receptor labeled by the radioiodinated analogue of 1 (4, [125I]-YLFQPQRF-NH2); neuropeptide FF receptor
Assay: Competitive radioligand binding against 4 ([125I]Y8F-amide)
Conditions: mixture-based positional scanning; difference from averaged radioligand displacement of whole library (0); about 80 a.u. = 10-fold change in Ki

Row | Structure (SMILES) | Relative Binding Index (RBI) [a.u.]
1 | CN(C)c1cccc2c(S(=O)(=O)N[C@@H](CCC(=O)O)C(=O)N[C@@H](Cc3c[nH]c4ccccc34)C(=O)N[C@@H](CCCNC(=N)N)C(N)=O)cccc12 [Dansyl-EWR-amide] (Dansyl-Glu-Trp-Arg-NH2) | 25
2 | CC[C@H](C)[C@H](NS(=O)(=O)c1cccc2c(N(C)C)cccc12)C(=O)N[C@@H](C)C(=O)N[C@@H](CCCNC(=N)N)C(N)=O [Dansyl-IAR-amide] (Dansyl-Ile-Ala-Arg-NH2) | −60
3 | CN(C)c1cccc2c(S(=O)(=O)N[C@@H](Cc3cnc[nH]3)C(=O)N3CCC[C@H]3C(=O)N[C@@H](CCCNC(=N)N)C(N)=O)cccc12 [Dansyl-HPR-amide] (Dansyl-His-Pro-Arg-NH2) | 20
4 | CC(C)C[C@H](NC(=O)[C@H](CO)NS(=O)(=O)c1cccc2c(N(C)C)cccc12)C(=O)N[C@@H](CCCNC(=N)N)C(N)=O [Dansyl-SLR-amide] (Dansyl-Ser-Leu-Arg-NH2) | 8
5 | CN(C)c1cccc2c(S(=O)(=O)N[C@@H](CO)C(=O)N[C@@H](CCC(N)=O)C(=O)N[C@@H](CCCNC(=N)N)C(N)=O)cccc12 [Dansyl-SQR-amide] (Dansyl-Ser-Gln-Arg-NH2) | 30
6 | CC(C)[C@H](NS(=O)(=O)c1cccc2c(N(C)C)cccc12)C(=O)NCC(=O)N[C@@H](CCCNC(=N)N)C(N)=O [Dansyl-VGR-amide] (Dansyl-Val-Gly-Arg-NH2) | 1
7 | C[C@@H](O)[C@H](NC(=O)[C@H](Cc1ccccc1)NS(=O)(=O)c1cccc2c(N(C)C)cccc12)C(=O)N[C@@H](CCCNC(=N)N)C(N)=O [Dansyl-FTR-amide] (Dansyl-Phe-Thr-Arg-NH2) | 15
8 | CN(C)c1cccc2c(S(=O)(=O)N[C@@H](Cc3cnc[nH]3)C(=O)N[C@@H](Cc3ccccc3)C(=O)N[C@@H](CCCNC(=N)N)C(N)=O)cccc12 [Dansyl-HFR-amide] (Dansyl-His-Phe-Arg-NH2) | 15
9 | C[C@@H](O)[C@H](NC(=O)CNS(=O)(=O)c1cccc2c(N(C)C)cccc12)C(=O)N[C@@H](CCCNC(=N)N)C(N)=O [Dansyl-GTR-amide] (Dansyl-Gly-Thr-Arg-NH2) | 31
10 | CN(C)c1cccc2c(S(=O)(=O)N[C@@H](Cc3ccc(O)cc3)C(=O)N[C@@H](Cc3ccc(O)cc3)C(=O)N[C@@H](CCCNC(=N)N)C(N)=O)cccc12 [Dansyl-YYR-amide] (Dansyl-Tyr-Tyr-Arg-NH2) | 6
11 | C[C@@H](O)[C@H](NS(=O)(=O)c1cccc2c(N(C)C)cccc12)C(=O)N[C@@H](CCC(=O)O)C(=O)N[C@@H](CCCNC(=N)N)C(N)=O [Dansyl-TER-amide] (Dansyl-Thr-Glu-Arg-NH2) | −8
12 | C[C@H](NS(=O)(=O)c1cccc2c(N(C)C)cccc12)C(=O)N[C@@H](CCCCN)C(=O)N[C@@H](CCCNC(=N)N)C(N)=O [Dansyl-AKR-amide] (Dansyl-Ala-Lys-Arg-NH2) | 10
13 | CC(C)[C@H](NC(=O)[C@H](Cc1ccc(O)cc1)NS(=O)(=O)c1cccc2c(N(C)C)cccc12)C(=O)N[C@@H](CCCNC(=N)N)C(N)=O [Dansyl-YVR-amide] (Dansyl-Tyr-Val-Arg-NH2) | 2
14 | CN(C)c1cccc2c(S(=O)(=O)NCC(=O)N[C@@H](CCC(N)=O)C(=O)N[C@@H](CCCNC(=N)N)C(N)=O)cccc12 [Dansyl-GQR-amide, dansyl-Gly-Gln-Arg-NH2] (Dansyl-Gly-Gln-Arg-NH2) | 39
15 | CC[C@H](C)[C@H](NC(=O)[C@@H](NS(=O)(=O)c1cccc2c(N(C)C)cccc12)C(C)C)C(=O)N[C@@H](CCCNC(=N)N)C(N)=O [Dansyl-VIR-amide] (Dansyl-Val-Ile-Arg-NH2) | 2
16 | CN(C)c1cccc2c(S(=O)(=O)N[C@@H](CCCNC(=N)N)C(=O)N[C@@H](CCCCN)C(=O)N[C@@H](CCCNC(=N)N)C(N)=O)cccc12 [Dansyl-RKR-amide] (Dansyl-Arg-Lys-Arg-NH2) | 4
